Key:
Type in all cases: cell-based, human
[1] = test system: adipose mesenchymal stem cells; assay: Viability of stem cells suspended in physiological saline containing acetylsalicylic acid
Method: The adipose mesenchymal stem cells isolated in Example 1 were treated with trypsin, and then suspended at a concentration of 1.0×10^7 cells in physiological saline containing varying concentrations of acetylsalicylic acid (Sigma; A5376), after which the viability of the cells at 12 hours and 24 hours after the suspension was observed. The physiological saline containing acetylsalicylic acid was prepared by adding acetylsalicylic acid to physiological saline at varying concentrations and sonicating it at 37° C. for 30 minutes.

[2] = test system: adipose mesenchymal stem cells; assay: FACS analysis of surface marker expression after suspension in saline containing aspirin lysine and cold storage
Method: (§1) The adipose mesenchymal stem cells isolated in Example 1 were treated with trypsin, and then suspended at a concentration of 1.0×10^7 cells in physiological saline containing varying concentrations of aspirin lysine (Shin Poong Pharm. Co., Ltd, Korea). Then, the cells were incubated for 5 days, and the cell count of the cells was measured. In addition, the cells were cold-stored for 24 hours, and then the characteristics of the cells were analyzed by FACS.

[3] = test system: adipose mesenchymal stem cells; assay: Viability and cell count after 5 days of incubation following suspension in saline containing aspirin lysine; conditions: varying concentrations in physiological saline
Method: as §1

[4] = 0.1 mg/10 ml, cold-stored for 24 hours, FACS

| SMILES | cytotoxicity ([1]; 1.0 mg or more added to 10 ml of physiological saline) | Viability ([1]; 1.0 mg/10 ml in physiological saline, 12 hours after suspension) [%] | Viability ([1]; 1.0 mg/10 ml in physiological saline, 24 hours after suspension) [%] | Viability ([1]; 2.0 mg/10 ml in physiological saline, 12 hours after suspension) [%] | Viability ([1]; 2.0 mg/10 ml in physiological saline, 24 hours after suspension) [%] | Viability ([1]; 5.0 mg/10 ml in physiological saline, 12 hours after suspension) [%] | Viability ([1]; 5.0 mg/10 ml in physiological saline, 24 hours after suspension) [%] | Expression rate CD29 [2, 4] [%] | Expression rate CD31 [2, 4] [%] | Expression rate CD44 [2, 4] [%] | Expression rate CD45 [2, 4] [%] | Expression rate CD90 [2, 4] [%] | Expression rate CD105 [2, 4] [%] | characteristics of the adipose mesenchymal stem cells (FACS) ([2]; suspended 24 hours in aspirin-containing saline, then cold-stored 24 hours) | cell viability depending on concentration [3] | count of the cells after 5 days of incubation [3] |
| --- | --- | --- | --- | --- | --- | --- | --- | --- | --- | --- | --- | --- | --- | --- | --- | --- |
| CC(=O)Oc1ccccc1C(=O)O [acetylsalicylic acid] | cytotoxic | 50 | 10 | 20 | 10 | 10 | 5 |  |  |  |  |  |  |  |  |  |
| CC(=O)Oc1ccccc1C(=O)O [aspirin lysine] |  |  |  |  |  |  |  | 99.97 | 0.21 | 99.25 | 0.17 | 99.66 | 99.89 | not dependent on the concentration of aspirin lysine | somewhat decreased depending on the concentration of aspirin lysine, but this decrease was not significant | did not almost differ between the concentrations of aspirin lysine |

— patent US20160081917A1, “STEM CELL COMPOSITION FOR VENOUS ADMINISTRATION” (K-STEMCELL CO., LTD, priority 2013, published 2016)
